{"source": "patent US20110105389A1", "about": "(priority 2009, published 2011)", "test_system": "male Zucker fatty rats", "experiment": "Subchronic (7 day) oral administration in male Zucker fatty rats, Method B14", "type": "in vivo, rat", "from_the_text": "B14. Effects of Subchronic Administration of Representative Compounds of the Invention in Male Zucker Fatty Rats\nThe objective of this study is to determine the subchronic effects of test compounds on body weight change, food and water consumption, as well as glucose homeostasis and insulin levels in male Zucker fatty rats up to 7 days upon oral administration. The male Zucker fatty rat was selected as an insulin resistance and genetically defined obesity model which is sensitive to the effect of different insulin sensitizers in acute as well as in chronic settings.\nRats were individually housed in rodent cages with soft wood bedding on the bottom and equipped with water bottles. All individual cages were clearly labeled with a cage card indicating study number, group, animal number and dose level. Each animal was uniquely identified by an animal number. The animal number was designated the day the animals arrived at the animal facility. The animal room environment was controlled (targeted ranges: temperature 22±2° C.; relative humidity 50±10%; light/dark cycle: 12 hours light, 12 hours dark, lights on from 06:00 AM to 06:00 PM). A regular rodent diet (Charles River 5075 rodent chow, Purina Mills, Canada) was provided to the animals ad libitum, after food weighing. Municipal tap water was provided to the animals ad libitum via water bottles. Fresh tap water was provided after water bottle weighing.\nAn acclimation period of approximately 7 days for all groups was allowed between the receipt of animals and the start of treatment to accustom the rats to the laboratory environment. On experimental day −7, animals were stratified according to body weight into an appropriate number of groups of 4 or 8 animals each.\nTest compound was administered, as a solution, orally, at the doses indicated. The dose volume was 5 mL/kg/day. Groups were dosed once daily around 8:00 a.m. On Day 3, on half of the animals (Subset A) and on Day 4 on the other half (Subset B), an OGTT was performed 2 hrs post-dosing (around 10:00 a.m.). The OGTT was repeated the same way on Days 7 (Subset A) and 8 (Subset B).\nFor the study animals, the data collected from study Days −7 to 8 are reported. Body weights were recorded for all animals on Day −7 prior to initiation of dosing, at the time of group assignment and daily throughout the study period (Day 1-8). Food and water intake was measured daily throughout the study period (Day 1-8). On Day 1 (Subset A), Day 2 (Subset B), Day 3 (Subset A), Day 4 (Subset B), Day 7 (Subset A) and Day 8 (Subset B), animals from Groups 2 and 3 were sampled for blood into EDTA coated tubes (K2-EDTA microtainer tubes, Becton Dickinson) from a tail vein (˜100 μl) 2 hrs post-dose for PK analysis. Blood was centrifuged at 4000 rpm for 10 min. at 4° C., and the resulting plasma transferred into non-coated tubes and stored at −80° C. until analysis.\nAn oral glucose tolerance test (OGTT) was carried out in animals of all groups on Day 3 (half of the animals) as well as on day 4 (other half of the animals). This was done 2 hrs post-dose. Animals were subjected to an overnight fast (food removed the day before at 5:00 PM). Blood samples of approximately 20 μL each for plasma glucose and 230 μL for plasma insulin measurements were collected into EDTA coated tubes (K2-EDTA microtainer tubes, Becton Dickinson) from a tail vein, at 0 (pre-glucose), 15, 30, 60, and 120 min after oral administration of 1.5 g/kg glucose (dextrose, Sigma Aldrich, 450 mg/mL dosing solution). The glucose solution was administered by oral gavage via a stainless steel feeding needle (18×2″, Popper @ Sons, cat. # 20068-642, VWR). While glucose concentrations were determined from a 20 μL drop of blood (Accu-Chek Aviva glucometers, Roche Diagnostics), the remaining 230 μL was centrifuged at 4000 rpm for 10 min. at 4° C., and the resulting plasma transferred into non-coated tubes and stored a −80° C. for insulin determination. […]"}
{"smiles": "CC[C@@H]1CCc2ccc(F)cc2OCCN[C@@H](C(C)C)C(=O)N(C)[C@@H](C(C)O)C(=O)N[C@H](Cc2c[nH]c3ccccc23)C(=O)N1", "note": "(some centres unmarked) [Compound 1505]", "values": [{"measurement": "food consumption on a daily basis vs vehicle controls", "setting": "10 mg/kg, 2 day timepoint", "value": "significant reductions"}, {"measurement": "cumulative food consumption", "setting": "30 mg/kg oral, FIG. 10", "value": "significant decrease"}, {"measurement": "net body weight", "setting": "30 mg/kg oral, over the 7 day study period, FIG. 9", "value": "significant reduction"}, {"measurement": "food consumption on a daily basis vs vehicle controls", "setting": "30 mg/kg, 2 day timepoint", "value": "significant reductions"}, {"measurement": "OGTT blood glucose versus untreated controls", "setting": "30 mg/kg, at both day 3 and day 7", "value": "decrease"}, {"measurement": "insulin sensitivity index", "setting": "attaining significance at the higher dose", "value": "higher"}, {"measurement": "free fatty acids", "setting": "both treatment groups", "value": "significantly reduced"}, {"measurement": "total cholesterol", "setting": "both treatment groups", "value": "significantly reduced"}, {"measurement": "food consumption on a daily basis vs vehicle controls", "setting": "higher dose (30 mg/kg), through the 6 day timepoint", "value": "remained significant"}, {"measurement": "plasma levels (PK analysis)", "setting": "oral administration", "value": "sufficient plasma levels"}, {"measurement": "insulin levels (area under the curve, AUC) in OGTT", "setting": "rat, in vivo", "value": "lowering effect"}]}
